Results published in publication PMC12154458, “High-Throughput Screens of Repurposing Hub and DOS Chemical Libraries Reveal Compounds with Novel and Potent Inhibitory Activity Against the Essential Non-Neuronal Acetylcholinesterase of Schistosoma mansoni (SmTAChE)” (International Journal of Molecular Sciences, 2025).
Structures can show the parent of a compound that is named as a salt.

Key:
[1] = target: T1, rSmTAChE (Schistosoma mansoni, UniProt A0A3Q0KMM5); assay: biochemical
[2] = target: recombinant human acetylcholinesterase, rHsAChE (Homo sapiens, UniProt P22303); assay: biochemical; conditions: for IC50: read-out: qAC50 (IC50), rHsAChE; for inhibition of rHsAChE, result in words: dose–response, up to 40 µM
recombinant human acetylcholinesterase, rHsAChE, sequence (P22303 32-614): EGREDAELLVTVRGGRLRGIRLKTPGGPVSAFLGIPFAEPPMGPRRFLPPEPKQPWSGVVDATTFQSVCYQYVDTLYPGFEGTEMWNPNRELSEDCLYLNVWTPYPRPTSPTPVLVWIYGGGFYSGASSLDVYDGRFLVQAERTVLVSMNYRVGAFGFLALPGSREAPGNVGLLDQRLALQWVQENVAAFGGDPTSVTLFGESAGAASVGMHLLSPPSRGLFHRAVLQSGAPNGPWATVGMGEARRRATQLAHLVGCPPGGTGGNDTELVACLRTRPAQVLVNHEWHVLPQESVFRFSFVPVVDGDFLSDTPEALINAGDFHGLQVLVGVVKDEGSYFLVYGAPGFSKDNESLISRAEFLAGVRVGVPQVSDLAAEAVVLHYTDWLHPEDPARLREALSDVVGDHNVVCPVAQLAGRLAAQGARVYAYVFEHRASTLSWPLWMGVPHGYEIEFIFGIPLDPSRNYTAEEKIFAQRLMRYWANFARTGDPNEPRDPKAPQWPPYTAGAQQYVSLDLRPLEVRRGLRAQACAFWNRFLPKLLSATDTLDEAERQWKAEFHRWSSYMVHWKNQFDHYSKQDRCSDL

[3] = target: T1, rSmTAChE; type: biochemical; conditions: for IC50: read-out: qAC50 (IC50), rSmTAChE
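Throughout, for Inhibition (%) (Average): mostly 20 µM final but a few compounds at 5 or 10 µM.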
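Throughout, for Inhibition (%) Replicate A: mostly 20 µM final but a few compounds at 5 or 10 µM.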
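Throughout, for Inhibition (%) Replicate B: mostly 20 µM final but a few compounds at 5 or 10 µM.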

T1 sequence (A0A3Q0KMM5 27-661 limits assumed): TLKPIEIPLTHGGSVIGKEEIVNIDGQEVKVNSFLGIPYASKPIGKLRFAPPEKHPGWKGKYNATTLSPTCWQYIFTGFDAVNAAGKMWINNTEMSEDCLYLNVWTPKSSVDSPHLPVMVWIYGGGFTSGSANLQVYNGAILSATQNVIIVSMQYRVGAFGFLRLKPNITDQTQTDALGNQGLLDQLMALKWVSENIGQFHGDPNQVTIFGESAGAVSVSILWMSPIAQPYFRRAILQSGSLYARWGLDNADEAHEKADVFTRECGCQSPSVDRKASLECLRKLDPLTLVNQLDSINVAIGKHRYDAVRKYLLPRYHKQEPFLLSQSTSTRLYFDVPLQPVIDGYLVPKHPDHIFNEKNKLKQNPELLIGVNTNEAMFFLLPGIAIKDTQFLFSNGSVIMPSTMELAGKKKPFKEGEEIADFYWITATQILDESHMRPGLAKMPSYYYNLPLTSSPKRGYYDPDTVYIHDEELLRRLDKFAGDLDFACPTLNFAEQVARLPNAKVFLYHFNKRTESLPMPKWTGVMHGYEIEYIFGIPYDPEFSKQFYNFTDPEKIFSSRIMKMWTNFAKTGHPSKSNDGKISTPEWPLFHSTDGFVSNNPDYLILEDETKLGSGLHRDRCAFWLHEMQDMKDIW

Structure (SMILES) | Inhibition (%) (Average) [1] | Inhibition (%) Replicate A [1] | Inhibition (%) Replicate B [1] | Data Mode (curve class), rHsAChE [2] | Data Mode (curve class), rSmTAChE [3] | IC50 [2] | other results
COC(=O)C1=C(C)NC(C)=C(C(=O)OC(C)(C)CN(C)CCC(c2ccccc2)c2ccccc2)C1c1cccc([N+](=O)[O-])c1 (centres unmarked) [BRD-A18992208-003-02-7] | 78.14% | 77.49% | 78.79% | inactive | inactive | – | –
Cc1cc(Oc2ccc3nc(COc4ccc(CC5SC(=O)NC5=O)cc4)n(C)c3c2)cc(C)c1N (centres unmarked) [BRD-A24560335-300-01-2] | 64.01% | 61.34% | 66.67% | inactive | decreasing (weakly active) | – | IC50 [3]: > 38 µM
Clc1ccc(C(c2ccccc2Cl)C(Cl)Cl)cc1 (centres unmarked) [BRD-A31204924-001-14-2] | 71.30% | 71.94% | 70.66% | decreasing (weakly active) | inactive | > 38 µM | –
Clc1ccc(C(Cn2ccnc2)OCc2ccc(Sc3ccccc3)cc2)c(Cl)c1 (centres unmarked) [BRD-A33697453-008-02-4] | 70.27% | 64.14% | 76.40% | inactive | inactive | – | –
CCCCCCCCCCCC([NH2+][O-])c1cc(C)ccc1O (centres unmarked) [BRD-A37752546-001-01-9] | 84.23% | 82.45% | 86.01% | decreasing | inactive | 7.8 µM | –
CC(=O)[C@@]12OC(C)(c3ccccc3)O[C@@H]1C[C@H]1[C@@H]3CCC4=CC(=O)CC[C@]4(C)[C@H]3CC[C@@]12C (some centres unmarked) [BRD-A41774846-001-01-4] | 86.37% | 86.06% | 86.68% | inactive | decreasing (weakly active) | – | IC50 [3]: > 38 µM
COC(=O)C1=C(C)NC(C)=C(C(=O)OC/C=C/c2ccccc2)C1c1cccc([N+](=O)[O-])c1 (centres unmarked) [BRD-A68083442-001-01-6] | 87.10% | 86.49% | 87.72% | inactive | inactive | – | –
Clc1ccc(CSC(Cn2ccnc2)c2ccc(Cl)cc2Cl)cc1 (centres unmarked) [BRD-A70649075-008-30-8] | 65.58% | 67.22% | 63.95% | decreasing (weakly active) | decreasing (weakly active) | > 38 µM | IC50 [3]: > 38 µM
C[C@]12CCC3c4ccc(OC(=O)c5ccccc5)cc4CCC3C1CC[C@@H]2O (some centres unmarked) [BRD-A74765037-001-01-1] | 66.55% | 67.53% | 65.56% | inactive | inactive | – | –
C[C@]12CC[C@@H]3c4ccc(O)cc4C[C@@H](CCCCCCCCC[S+]([O-])CCCC(F)(F)C(F)(F)F)[C@H]3[C@@H]1CC[C@@H]2O (some centres unmarked) [BRD-A85667082-001-10-1] | 87.19% | 87.84% | 86.54% | – | – | – | –
C[C@]12CC[C@@H]3c4ccc(O)cc4C[C@@H](CCCCCCCCC[S+]([O-])CCCC(F)(F)C(F)(F)F)[C@H]3[C@@H]1CC[C@@H]2O (some centres unmarked) [BRD-A85667082-001-11-9] | 64.36% | 64.01% | 64.71% | decreasing (weakly active) | inactive | > 13.5 µM | –
C[C@]12CC[C@@H]3c4ccc(O)cc4C[C@@H](CCCCCCCCC[S+]([O-])CCCC(F)(F)C(F)(F)F)[C@H]3[C@@H]1CC[C@@H]2O (some centres unmarked) [BRD-A85667082-001-12-7] | – | – | – | inactive | decreasing (weakly active) | – | IC50 [3]: > 38 µM
C[C@]12CC[C@@H]3c4ccc(O)cc4C[C@@H](CCCCCCCCC[S+]([O-])CCCC(F)(F)C(F)(F)F)[C@H]3[C@@H]1CC[C@@H]2O (some centres unmarked) [BRD-A85667082-001-13-5] | 86.15% | 85.50% | 86.80% | inactive | inactive | – | –
CC(C)(C)c1ccc(CN2CCN(C(c3ccccc3)c3ccc(Cl)cc3)CC2)cc1 (centres unmarked) [BRD-A91444184-300-01-9] | 84.37% | 84.75% | 83.99% | inactive | inactive | – | –
C[C@]12CCC3c4ccc(O)cc4CCC3C1CC[C@@H]2OC(=O)CCC1CCCC1 (some centres unmarked) [BRD-A91452556-001-04-0] | 88.63% | 90.28% | 86.98% | decreasing (weakly active) | inactive | > 38 µM | –
COC(=O)CCSCc1ccc(-c2onc(C)c2NC(=O)OC(C)c2ccccc2Cl)cc1 (centres unmarked) [BRD-A94323479-001-02-8] | 67.17% | 60.59% | 73.75% | decreasing (weakly active) | inactive | > 38 µM | –
CCC(CC)C(c1ccc(Nc2nc3ccccc3s2)cc1)n1cncn1 (centres unmarked) [BRD-A95755460-001-01-3] | 71.38% | 75.72% | 67.03% | inactive | decreasing (weakly active) | – | IC50 [3]: > 38 µM

Structure (SMILES) | Inhibition (%) (Average) [1] | Inhibition (%) Replicate A [1] | Inhibition (%) Replicate B [1] | Data Mode (curve class), rHsAChE [2] | Data Mode (curve class), rSmTAChE [3] | IC50 [2] | other results
N#C[C@H]1[C@H](c2ccc(C#CC3CC3)cc2)[C@H](CO)N1C(=O)Cc1ccccn1 [BRD-K00124439-001-01-2] | 63.26% | 63.67% | 62.84% | – | – | – | rHsAChE Data Mode [2]: inactive; rSmTAChE Data Mode [3]: decreasing (weakly active)
O=C(C[C@H]1C=C[C@H](NC(=O)c2ccncc2)[C@@H](CO)O1)Nc1ccc(-c2ccccc2)cc1 [BRD-K04695993-001-01-5] | 82.34% | 77.66% | 87.01% | – | – | – | rHsAChE Data Mode [2]: inactive; rSmTAChE Data Mode [3]: inactive
CC(C)Oc1ccc(-c2cnc3c(-c4ccnc5ccccc45)cnn3c2)cc1 [BRD-K39381259-001-01-0] | – | – | – | decreasing (weakly active) | inactive | > 13.5 µM | –
CC(C)Oc1ccc(-c2cnc3c(-c4ccnc5ccccc45)cnn3c2)cc1 [BRD-K39381259-001-02-8] | 67.85% | 64.38% | 71.32% | – | – | – | –
C[C@H](Oc1cc(-c2cnn(C3CCNCC3)c2)cnc1N)c1c(Cl)ccc(F)c1Cl [BRD-K40308497-001-01-2] | 86.27% | 85.50% | 87.03% | – | – | – | –
C[C@H](Oc1cc(-c2cnn(C3CCNCC3)c2)cnc1N)c1c(Cl)ccc(F)c1Cl [BRD-K40308497-001-02-0] | – | – | – | decreasing | decreasing | 21.2 µM | IC50 [3]: 26.8 µM
CC(C)(O)c1ccccc1CC[C@@H](SCC1(CC(=O)O)CC1)c1cccc(/C=C/c2ccc3ccc(Cl)cc3n2)c1 [BRD-K69470111-001-01-2] | – | – | – | increasing (weakly active) | decreasing (weakly active) | > 38 µM | IC50 [3]: > 38 µM
CC(C)(O)c1ccccc1CC[C@@H](SCC1(CC(=O)O)CC1)c1cccc(/C=C/c2ccc3ccc(Cl)cc3n2)c1 [BRD-K69470111-236-09-7] | 81.70% | 81.35% | 82.06% | – | – | – | –
CC1(C)CCC(C)(C)c2cc(C#Cc3ccc(C(=O)O)cc3)ccc21 [BRD-K81004638-001-01-7] | – | – | – | decreasing | decreasing | 14.5 µM | IC50 [3]: 19.8 µM
CC1(C)CCC(C)(C)c2cc(C#Cc3ccc(C(=O)O)cc3)ccc21 [BRD-K81004638-001-02-5] | 66.58% | 64.60% | 68.56% | – | – | – | –
CCCCCCCCc1ccc(CCC(N)(CO)CO)cc1 [BRD-K88025533-003-03-3] | 70.74% | 73.25% | 68.23% | – | – | – | –
CCCCCCCCc1ccc(CCC(N)(CO)CO)cc1 [BRD-K88025533-003-04-1] | – | – | – | inactive | inactive | – | –
C/C=C1\[C@H]2C=C(C)C[C@]1(N)c1ccc(=O)[nH]c1C2 [Huperzine A, reference compound] | – | – | – | – | decreasing | – | inhibition at 20 µM ([1]; read-out: rSmTAChE HTS Inhibition (Ave, %)): 64.1%
Nc1ccc(O)c(C(=O)O)c1 [Mesalazine, reference compound] | – | – | – | – | decreasing | – | IC50 (µM) rHsAChE [2]: Inactive; inhibition of rHsAChE, result in words [2]: no detectable inhibitory effect; inhibition of rHsAChE, result in words ([2]; listed as #19): no inhibition detected
CNC(=O)Oc1ccc2c(c1)[C@]1(C)CCN(C)[C@@H]1N2C [Physostigmine salicylate, reference compound] | – | – | – | decreasing | decreasing | – | –
CNC(=O)Oc1ccc2c(c1)[C@]1(C)CCN(C)[C@@H]1N2C [Physostigmine sulfate, reference compound] | – | – | – | decreasing | decreasing | – | –
